This is an account of results in PubChem BioAssay AID290 (DTP/NCI, 2004).

The test system of the assay is mice, P1798 lymphosarcoma sc, survival or tumor weight T/C. Description: NCI In Vivo Anticancer Drug Screen. Data for tumor model P1798 Lymphosarcoma (subcutaneous) in unknown mice. As for the experimental part: The antitumor activity of compounds was measured in mice bearing transplantable tumors. Survival or tumor size were measured and the results are expressed as the measurement made in the treated group (T) divided by the measurement made in the vehicle treated control group (C). The tumor model used in this assay is P1798 Lymphosarcoma (subcutaneous) in unknown mice

Where [1] appears, read: endpoint: mean tumor weight, dose: 0.63 mg/kg/injection, schedule: Q01DX010 (ip), vehicle: saline, higher = larger tumour.
Where [2] appears, read: endpoint: mean tumor weight, dose: 1.25 mg/kg/injection, schedule: Q01DX010 (ip), vehicle: saline, higher = larger tumour.
Where [3] appears, read: endpoint: mean tumor weight, dose: 2.5 mg/kg/injection, schedule: Q01DX010 (ip), vehicle: saline, higher = larger tumour.
Where [4] appears, read: endpoint: mean tumor weight, dose: 37.5 mg/kg/injection, schedule: Q01DX010 (ip), vehicle: carboxymethylcellulose (CMC), higher = larger tumour.
[5] abbreviates: endpoint: mean tumor weight, dose: 5.0 mg/kg/injection, schedule: Q01DX010 (ip), vehicle: saline, higher = larger tumour.
Setting [6] is: endpoint: mean tumor weight, dose: 12.5 mg/kg/injection, schedule: Q01DX010 (ip), vehicle: carboxymethylcellulose (CMC), higher = larger tumour.

Values joined by “and” are separate entries in the source; they are usually repeats but may differ in a detail not shown here. Equal entries are not always repeated. Results filed as inconclusive are left out.

For the compound `S=P(N1CC1)(N1CC1)N1CC1`, the T/C is 95 % of control under setting [1]; 64 % of control under setting [2]; 24 % of control under setting [3]; 97 % of control (endpoint: median survival time, dose: 0.75 mg/kg/injection, schedule: Q01DX010 (sc), vehicle: water, higher = longer survival); 105 % of control (endpoint: median survival time, dose: 1.5 mg/kg/injection, schedule: Q01DX010 (sc), vehicle: water, higher = longer survival); 103 % of control (endpoint: median survival time, dose: 3.0 mg/kg/injection, schedule: Q01DX010 (sc), vehicle: water, higher = longer survival). Also, the T/C by setting is: (endpoint: median survival time, dose: 6.0 mg/kg/injection, schedule: Q01DX010 (sc), vehicle: water, higher = longer survival) 47 % of control; (endpoint: median survival time, dose: 12.0 mg/kg/injection, schedule: Q01DX010 (sc), vehicle: water, higher = longer survival) 27 % of control.
For `NC(=O)N(CCCl)N=O`, the T/C runs as follows: (endpoint: mean tumor weight, dose: 1.0 mg/kg/injection, schedule: Q01DX010 (ip), vehicle: carboxymethylcellulose (CMC), higher = larger tumour) 104 % of control; (endpoint: mean tumor weight, dose: 2.0 mg/kg/injection, schedule: Q01DX010 (ip), vehicle: carboxymethylcellulose (CMC), higher = larger tumour) 115 % of control; (endpoint: mean tumor weight, dose: 4.0 mg/kg/injection, schedule: Q01DX010 (ip), vehicle: carboxymethylcellulose (CMC), higher = larger tumour) 116 % of control; (endpoint: mean tumor weight, dose: 8.0 mg/kg/injection, schedule: Q01DX010 (ip), vehicle: carboxymethylcellulose (CMC), higher = larger tumour) 61 % of control.
For `O=P1(N(CCCl)CCCl)NCCCO1` (stereo not given), the T/C is 113 % of control and 107 % of control (endpoint: mean tumor weight, dose: 6.3 mg/kg/injection, schedule: Q01DX010 (ip), vehicle: saline, higher = larger tumour); 86 % of control (endpoint: mean tumor weight, dose: 13.0 mg/kg/injection, schedule: Q01DX011 (ip), vehicle: saline, higher = larger tumour); 121 % of control (endpoint: mean tumor weight, dose: 26.5 mg/kg/injection, schedule: Q01DX011 (ip), vehicle: saline, higher = larger tumour); 26 % of control (endpoint: mean tumor weight, dose: 40.0 mg/kg/injection, schedule: Q01DX011 (ip), vehicle: saline, higher = larger tumour); 80 % of control (endpoint: median survival time, dose: 3.12 mg/kg/injection, schedule: Q01DX010 (ip), vehicle: saline, higher = longer survival); 97 % of control (endpoint: median survival time, dose: 6.25 mg/kg/injection, schedule: Q01DX010 (ip), vehicle: saline, higher = longer survival). For the same compound, the T/C is 99 % of control (endpoint: median survival time, dose: 6.3 mg/kg/injection, schedule: Q07DX005 (ip), vehicle: saline, higher = longer survival); 107 % of control (endpoint: median survival time, dose: 12.5 mg/kg/injection, schedule: Q01DX001 (ip), vehicle: saline, higher = longer survival); 96 % of control and 103 % of control (2×) (endpoint: median survival time, dose: 12.5 mg/kg/injection, schedule: Q01DX010 (ip), vehicle: saline, higher = longer survival); 106 % of control (endpoint: median survival time, dose: 12.5 mg/kg/injection, schedule: Q07DX005 (ip), vehicle: saline, higher = longer survival); 92 % of control (2×) and 101 % of control (endpoint: median survival time, dose: 25.0 mg/kg/injection, schedule: Q01DX001 (ip), vehicle: saline, higher = longer survival); 46 % of control and 98 % of control (2×) (endpoint: median survival time, dose: 25.0 mg/kg/injection, schedule: Q01DX010 (ip), vehicle: saline, higher = longer survival). Also, the T/C is 103 % of control (endpoint: median survival time, dose: 25.0 mg/kg/injection, schedule: Q07DX005 (ip), vehicle: saline, higher = longer survival); 97 % of control and 99 % of control (2×) (endpoint: median survival time, dose: 50.0 mg/kg/injection, schedule: Q01DX001 (ip), vehicle: saline, higher = longer survival); 29 % of control and 90 % of control (2×) (endpoint: median survival time, dose: 50.0 mg/kg/injection, schedule: Q01DX010 (ip), vehicle: saline, higher = longer survival); 110 % of control (endpoint: median survival time, dose: 50.0 mg/kg/injection, schedule: Q07DX005 (ip), vehicle: saline, higher = longer survival); 114 % of control and 100 % of control (2×) (endpoint: median survival time, dose: 100.0 mg/kg/injection, schedule: Q01DX001 (ip), vehicle: saline, higher = longer survival); 29 % of control (endpoint: median survival time, dose: 100.0 mg/kg/injection, schedule: Q01DX010 (ip), vehicle: saline, higher = longer survival). The T/C is, setting by setting: (endpoint: median survival time, dose: 100.0 mg/kg/injection, schedule: Q07DX005 (ip), vehicle: saline, higher = longer survival) 95 % of control; (endpoint: median survival time, dose: 200.0 mg/kg/injection, schedule: Q01DX001 (ip), vehicle: saline, higher = longer survival) 107 % of control; (endpoint: median survival time, dose: 200.0 mg/kg/injection, schedule: Q01DX010 (ip), vehicle: saline, higher = longer survival) 25 % of control; (endpoint: median survival time, dose: 400.0 mg/kg/injection, schedule: Q01DX001 (ip), vehicle: saline, higher = longer survival) 29 % of control.
For the compound `Nc1nc2n[nH]nc2c(=O)[nH]1`, the T/C is 67 % of control and 71 % of control and 88 % of control (endpoint: mean tumor weight, dose: 50.0 mg/kg/injection, schedule: Q01DX010 (ip), vehicle: other, higher = larger tumour); 46 % of control (endpoint: mean tumor weight, dose: 200.0 mg/kg/injection, schedule: Q01DX010 (ip), vehicle: other, higher = larger tumour).
On to `Nc1ncnc2c1ncn2C1OC(CO)CC1O` (stereo not given), for which the T/C under setting [4] is 111 % of control and the T/C (endpoint: mean tumor weight, dose: 75.0 mg/kg/injection, schedule: Q01DX010 (ip), vehicle: carboxymethylcellulose (CMC), higher = larger tumour) was 85 % of control.
`S=C(N=Nc1ccccc1)NNc1ccccc1`: the T/C under setting [4] was 64 % of control.
`C[C@@H]1C[C@H]2CC[C@H](O2)[C@H](C)C(=O)O[C@@H](C)C[C@@H]2CC[C@@H](O2)[C@@H](C)C(=O)O[C@H](C)C[C@H]2CC[C@H](O2)[C@H](C)C(=O)O[C@@H](C)C[C@@H]2CC[C@@H](O2)[C@@H](C)C(=O)O1`: the T/C is, setting by setting: (endpoint: mean tumor weight, dose: 45.0 mg/kg/injection, schedule: Q01DX011 (ip), vehicle: other, higher = larger tumour) 93 % of control; (endpoint: mean tumor weight, dose: 90.0 mg/kg/injection, schedule: Q01DX011 (ip), vehicle: other, higher = larger tumour) 89 % of control; (endpoint: mean tumor weight, dose: 180.0 mg/kg/injection, schedule: Q01DX011 (ip), vehicle: other, higher = larger tumour) 83 % of control; (endpoint: mean tumor weight, dose: 360.0 mg/kg/injection, schedule: Q01DX011 (ip), vehicle: other, higher = larger tumour) 61 % of control.
On to `NC(=O)c1ccc(N)nc1`, for which the T/C under setting [1] was 71 % of control, the T/C under setting [2] is 82 % of control, the T/C under setting [3] was 52 % of control and the T/C under setting [5] was 21 % of control.
Turning to `N[C@@H](Cc1ccc(N(CCCl)CCCl)cc1)C(=O)O`, the T/C is 49 % of control under setting [2]; 29 % of control under setting [3]; 13 % of control (endpoint: mean tumor weight, dose: 4.0 mg/kg/injection, schedule: Q01DX011 (ip), vehicle: carboxymethylcellulose (CMC), higher = larger tumour); 16 % of control under setting [5]; 112 % of control (endpoint: median survival time, dose: 0.75 mg/kg/injection, schedule: Q01DX010 (sc), vehicle: saline, higher = longer survival); 104 % of control (endpoint: median survival time, dose: 1.5 mg/kg/injection, schedule: Q01DX010 (sc), vehicle: saline, higher = longer survival). In addition, the T/C runs as follows: (endpoint: median survival time, dose: 3.0 mg/kg/injection, schedule: Q01DX010 (sc), vehicle: saline, higher = longer survival) 75 % of control; (endpoint: median survival time, dose: 6.0 mg/kg/injection, schedule: Q01DX010 (sc), vehicle: saline, higher = longer survival) 52 % of control; (endpoint: median survival time, dose: 12.0 mg/kg/injection, schedule: Q01DX010 (sc), vehicle: saline, higher = longer survival) 26 % of control.
As for `Cn1c(O)c(N=NC(N)=S)c2ccccc21`, the T/C is 206 % of control (endpoint: mean tumor weight, dose: 25.0 mg/kg/injection, schedule: Q01DX011 (ip), vehicle: carboxymethylcellulose (CMC), higher = larger tumour); 117 % of control (endpoint: mean tumor weight, dose: 50.0 mg/kg/injection, schedule: Q01DX011 (ip), vehicle: carboxymethylcellulose (CMC), higher = larger tumour); 87 % of control (endpoint: mean tumor weight, dose: 100.0 mg/kg/injection, schedule: Q01DX011 (ip), vehicle: carboxymethylcellulose (CMC), higher = larger tumour).
As to `S=P(N1CCOCC1)(N1CC1)N1CC1`, the T/C (endpoint: mean tumor weight, dose: 6.25 mg/kg/injection, schedule: Q01DX010 (ip), vehicle: carboxymethylcellulose (CMC), higher = larger tumour) is 82 % of control and the T/C under setting [6] is 60 % of control.
On to `COc1cccc2c1C(=O)c1c(O)c3c(c(O)c1C2=O)C[C@@](O)(C(=O)CO)C[C@@H]3OC1CC(N)C(O)C(C)O1` (stereo not given in full), for which the T/C runs as follows: (endpoint: median survival time, dose: 0.25 mg/kg/injection, schedule: Q01DX010 (ip), vehicle: water, higher = longer survival) 84 % of control; (endpoint: median survival time, dose: 0.5 mg/kg/injection, schedule: Q01DX010 (ip), vehicle: water, higher = longer survival) 102 % of control; (endpoint: median survival time, dose: 1.0 mg/kg/injection, schedule: Q01DX010 (ip), vehicle: water, higher = longer survival) 93 % of control; (endpoint: median survival time, dose: 1.0 mg/kg/injection, schedule: Q04DX007 (ip), vehicle: water, higher = longer survival) 108 % of control; (endpoint: median survival time, dose: 2.0 mg/kg/injection, schedule: Q01DX010 (ip), vehicle: water, higher = longer survival) 36 % of control; (endpoint: median survival time, dose: 2.0 mg/kg/injection, schedule: Q04DX007 (ip), vehicle: water, higher = longer survival) 107 % of control. Further, the T/C (endpoint: median survival time, dose: 4.0 mg/kg/injection, schedule: Q01DX010 (ip), vehicle: water, higher = longer survival) was 28 % of control.
For `CCCCCCCCCCCCCCCCC(C(=O)O)C(O)(CC(=O)O)C(=O)O` (stereo not given), the T/C was 84 % of control under setting [6] and 87 % of control (endpoint: mean tumor weight, dose: 25.0 mg/kg/injection, schedule: Q01DX010 (ip), vehicle: carboxymethylcellulose (CMC), higher = larger tumour).
For `N=[N+]=CC(=O)OCC(N)C(=O)O` (stereo not given), the T/C reads like this: under setting [2], 98 % of control; under setting [3], 56 % of control; under setting [5], 17 % of control and 24 % of control.
With `N#[N+]c1cnc([O-])[nH]c1=O`, the T/C reads like this: (endpoint: mean tumor weight, dose: 5.0 mg/kg/injection, schedule: Q01DX010 (ip), vehicle: carboxymethylcellulose (CMC), higher = larger tumour) 105 % of control; (endpoint: mean tumor weight, dose: 10.0 mg/kg/injection, schedule: Q01DX010 (ip), vehicle: carboxymethylcellulose (CMC), higher = larger tumour) 47 % of control.
